Experimental data taken from ChEMBL document CHEMBL4680375 (ACS Med Chem Lett, 2021).
pIC50: −log10 of the molar value. Active and inactive are the calls of the source. No cut-off for these calls is given here.

What follows are compounds tested against T1, NAD-dependent protein deacetylase sirtuin-1 (Homo sapiens, UniProt Q96EB6) (assay: Inhibition of N-terminal hexa-His-tagged human SIRT1 (156 to 664 residues) expressed in Escherichia coli BL21 (DE3) assessed as deacetylation of Abz-labeled acetyl peptide using Abz-GVLKacAYNO2GY-NH2 peptide as substrate incubated for 30 mins in presence of NAD+ by fluorescence microplate reader assay). Details: not given.
T1 sequence (Q96EB6 whole entry): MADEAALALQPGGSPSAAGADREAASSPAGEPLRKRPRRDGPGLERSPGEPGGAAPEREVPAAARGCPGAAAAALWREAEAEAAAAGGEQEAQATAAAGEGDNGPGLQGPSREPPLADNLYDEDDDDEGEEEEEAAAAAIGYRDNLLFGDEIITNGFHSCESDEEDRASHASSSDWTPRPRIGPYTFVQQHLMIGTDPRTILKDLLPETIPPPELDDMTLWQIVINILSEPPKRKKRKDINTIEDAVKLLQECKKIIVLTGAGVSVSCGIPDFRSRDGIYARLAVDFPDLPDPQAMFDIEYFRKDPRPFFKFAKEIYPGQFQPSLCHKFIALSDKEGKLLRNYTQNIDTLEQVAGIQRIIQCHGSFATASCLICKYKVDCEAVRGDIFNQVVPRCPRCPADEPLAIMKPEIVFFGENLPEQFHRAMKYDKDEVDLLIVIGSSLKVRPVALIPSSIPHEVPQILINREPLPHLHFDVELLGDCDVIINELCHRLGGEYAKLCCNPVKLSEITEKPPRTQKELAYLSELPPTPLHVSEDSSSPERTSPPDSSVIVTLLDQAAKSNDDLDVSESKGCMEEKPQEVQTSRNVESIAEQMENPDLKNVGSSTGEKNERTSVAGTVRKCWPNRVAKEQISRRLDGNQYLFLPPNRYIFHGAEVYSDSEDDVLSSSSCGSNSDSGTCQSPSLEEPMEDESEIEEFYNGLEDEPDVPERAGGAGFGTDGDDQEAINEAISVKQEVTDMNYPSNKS

SMILES | IC50
CC1(c2ccccc2)OC(=O)C(=Cc2ccccc2)C(=O)O1 (stereo unspecified) | Not Active

Same assay, conditions: read-out: IC50

SMILES | pIC50
O=C1OC(c2ccccc2)OC(=O)C1=Cc1ccc(Cl)cc1 (stereo unspecified) | 4.73
O=C1OC(c2ccccc2)OC(=O)C1=Cc1ccc(O)cc1Br (stereo unspecified) | 5.45
O=C1OC(c2ccccc2)OC(=O)C1=Cc1cc(F)c(O)c(F)c1 (stereo unspecified) | 5.34
Nc1c(I)cc(C=C2C(=O)OC(c3ccccc3)OC2=O)cc1I (stereo unspecified) | 4.99
Cc1cc(C=C2C(=O)OC(c3ccccc3)OC2=O)ccc1O (stereo unspecified) | 5.27
CCc1cc(C=C2C(=O)OC(c3ccccc3)OC2=O)cc(CC)c1O (stereo unspecified) | 5.51
CC(C)(C)c1cc(C=C2C(=O)OC(c3ccccc3)OC2=O)cc(C(C)(C)C)c1O (stereo unspecified) | 4.72
O=C1OC(c2ccccc2)OC(=O)C1=Cc1ccc(O)c(OCc2ccccc2)c1 (stereo unspecified) | 5.60
Cc1cc(C=C2C(=O)OC(c3ccccc3)OC2=O)cc(C)c1O (stereo unspecified) | 5.51
O=C1OC(c2ccccc2)OC(=O)C1=Cc1cc(Br)c(O)c(Br)c1 (stereo unspecified) | 6.15
COc1cc(C=C2C(=O)OC(c3ccccc3)OC2=O)cc(Cc2ccccc2)c1O (stereo unspecified) | 5.61
CCOc1cc(C=C2C(=O)OC(c3ccccc3)OC2=O)cc(Br)c1O (stereo unspecified) | 5.94
COc1ccc(OC)c(C=C2C(=O)OC(C)(c3ccccc3)OC2=O)c1 (stereo unspecified) | 4.78
COc1cc(C=C2C(=O)OC(c3ccccc3)OC2=O)cc([N+](=O)[O-])c1O (stereo unspecified) | 5.46
O=C1OC(c2ccccc2)OC(=O)C1=Cc1ccc(O)cc1F (stereo unspecified) | 5.42
COc1cc(C=C2C(=O)OC(c3ccccc3)OC2=O)c(Br)cc1O (stereo unspecified) | 5.45
O=C1OC(c2ccccc2)OC(=O)C1=Cc1ccc(O)c(Br)c1 (stereo unspecified) | 5.85
O=C1OC(c2ccccc2)OC(=O)C1=Cc1ccc(O)c(OCC2CC2)c1 (stereo unspecified) | 5.61
O=C1OC(c2ccccc2)OC(=O)C1=Cc1cc(Br)c(O)c(OCc2ccccc2)c1 (stereo unspecified) | 6.17
O=C1OC(c2ccccc2)OC(=O)C1=Cc1ccc(O)c(Cl)c1 (stereo unspecified) | 5.42

SMILES | pIC50
CC(C)Oc1cccc(C=C2C(=O)OC(c3ccccc3)OC2=O)c1 (stereo unspecified) | 4.85
COc1ccccc1C=C1C(=O)OC(C)(c2ccccc2)OC1=O (stereo unspecified) | 4.84
COc1cc(C=C2C(=O)OC(c3ccccc3)OC2=O)ccc1OCc1ccc2c(c1)OCO2 (stereo unspecified) | 5.09
CC1(c2ccccc2)OC(=O)C(=Cc2ccc(O)cc2)C(=O)O1 (stereo unspecified) | 5.15
O=C1OC(c2ccccc2)OC(=O)C1=Cc1ccc(O)cc1 (stereo unspecified) | 5.20
COc1cc(OC)c(C=C2C(=O)OC(C)(c3ccccc3)OC2=O)cc1Br (stereo unspecified) | 4.87
COc1ccc(C=C2C(=O)OC(c3ccccc3)OC2=O)c(OC)c1OC (stereo unspecified) | 4.80
COc1cc(C=C2C(=O)OC(c3ccccc3)OC2=O)cc(OC)c1O (stereo unspecified) | 4.92
COc1cc(C=C2C(=O)OC(C)(c3ccccc3)OC2=O)ccc1OCc1cccc(C(=O)O)c1 (stereo unspecified) | 4.89
COc1cc(C=C2C(=O)OC(c3ccccc3)OC2=O)cc(Cl)c1O (stereo unspecified) | 5.72
Nc1c(Br)cc(C=C2C(=O)OC(c3ccccc3)OC2=O)cc1Br (stereo unspecified) | 5.12
CCOc1cc(C=C2C(=O)OC(c3ccccc3)OC2=O)cc([N+](=O)[O-])c1O (stereo unspecified) | 5.43
Cc1cc(C=C2C(=O)OC(c3ccccc3)OC2=O)c(C)cc1O (stereo unspecified) | 5.36
COc1cc(C=C2C(=O)OC(c3ccccc3)OC2=O)cc(C(=O)OCc2ccccc2)c1O (stereo unspecified) | 5.58
O=C1OC(c2ccccc2)OC(=O)C1=Cc1cc(I)c(O)c(OCc2ccccc2)c1 (stereo unspecified) | 6.21
O=C1OC(c2ccccc2)OC(=O)C1=Cc1ccc(OCc2cccc(C(=O)O)c2)cc1 (stereo unspecified) | 5.00
O=C1OC(c2ccccc2)OC(=O)C1=Cc1ccc(O)c(F)c1 (stereo unspecified) | 5.33
CCOc1cc(C=C2C(=O)OC(c3ccccc3)OC2=O)ccc1O (stereo unspecified) | 5.26
CCOc1cc(C=C2C(=O)OC(C)(c3ccccc3)OC2=O)ccc1O (stereo unspecified) | 5.10

Each compound was assayed against T2, NAD-dependent protein deacetylase sirtuin-1 (Homo sapiens) (UniProt Q96EB6) (assay: Inhibition of SIRT1 in human SH-SY5Y cells assessed as increase in acetylated p53 level at 10 uM measured after 72 hrs in presence of ATRA by Western blot analysis). Details: not given.
T2 sequence (whole entry): T1 sequence (Q96EB6 whole entry)
Type: cell-based

SMILES | increase in acetylated p53 level (qualitative)
COc1cc(C=C2C(=O)OC(c3ccccc3)OC2=O)cc(Cl)c1O (stereo unspecified) | Active
